# Publication PMC8262356, “SLC26A6-selective inhibitor identified in a small-molecule screen blocks fluid absorption in small intestine” (JCI Insight, 2021)
# Molecular target: T1, slc26a2 (Mus musculus, UniProt Q62273)
# T1 construct: Full -length slc26a2 cDNAs; expressed in transfected cells; host or cells: 293 T/17 cells, transient transfection with pIRES-HIF vector (IRES-YFP, not fused)
# T1 sequence (Q62273 1-739): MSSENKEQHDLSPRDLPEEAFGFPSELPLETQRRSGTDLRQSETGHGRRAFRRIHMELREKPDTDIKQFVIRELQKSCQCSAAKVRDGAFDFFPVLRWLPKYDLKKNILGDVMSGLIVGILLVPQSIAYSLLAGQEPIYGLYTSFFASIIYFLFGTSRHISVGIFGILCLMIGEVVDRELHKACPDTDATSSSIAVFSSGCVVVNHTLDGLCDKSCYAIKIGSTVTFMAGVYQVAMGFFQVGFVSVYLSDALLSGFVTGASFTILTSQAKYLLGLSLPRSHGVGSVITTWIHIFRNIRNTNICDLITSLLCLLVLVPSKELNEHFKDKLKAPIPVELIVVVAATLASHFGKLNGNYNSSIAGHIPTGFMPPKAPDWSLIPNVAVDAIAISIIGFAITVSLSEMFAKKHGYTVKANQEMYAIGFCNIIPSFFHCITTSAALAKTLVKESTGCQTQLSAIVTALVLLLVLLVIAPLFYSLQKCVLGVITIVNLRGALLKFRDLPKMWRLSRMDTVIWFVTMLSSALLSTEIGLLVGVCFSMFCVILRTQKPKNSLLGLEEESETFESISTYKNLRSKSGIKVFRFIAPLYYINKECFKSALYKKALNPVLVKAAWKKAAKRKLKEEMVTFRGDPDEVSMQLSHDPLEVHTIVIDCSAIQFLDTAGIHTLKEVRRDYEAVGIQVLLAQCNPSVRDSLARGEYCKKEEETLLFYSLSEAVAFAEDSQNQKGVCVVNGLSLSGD
# Experiment: Selectivity: Cl-/I- exchange in 293T/17 cells transfected with slc26a2 and YFP
# Type: cell-based
# Details: 25 μM, 10 min preincubation
# Procedure: YFP-based cellular assays of slc26a3, slc26a4, SLC26A9, and TMEM16A function were performed as described previously ([7]). Slc26a1 and slc26a2 assays were done in transfected HEK 293 cells (see Supplemental Methods for details). Niflumic acid was used as a positive control for SLC26A isoforms ([7]). For TMEM16A, the selective small-molecule inhibitor TMinh-23 was used as a positive control ([28]). The activities of ENaC, CFTR, and CaCC were determined using well-differentiated HBE cells as described previously ([13]). Cl^–/HCO3^– exchange was measured as described previously ([7], [10], [11]). Briefly, cell cytoplasm was labeled with the pH-sensitive fluorescent dye BCECF-AM (Invitrogen), and Cl^–/HCO3^– exchange was measured in response to addition of a gluconate-containing solution to drive exchange of cytoplasmic Cl^– for extracellular HCO3^–, producing cytoplasmic alkalinization.
# Slc26a1 and slc26a2 cDNA constructs
# The complementar y DNA sequences of slc26a1 and slc26a2 were generated using gB LOCK gene fragments (Int egrat ed DNA technology, Coralville, IA) in the plasmid vector pIRESpuro3 (Takara, San J ose, CA). […]
# PBS. […] Background-corrected, area-integrat ed single cell fluorescence was calcul ated for determination of slc26a1 / slc26a2 activit y from the rate of fluorescence quenching. […]
compound,measurement,value
Cc1c(Br)c(C(F)(F)F)nn1CC(=O)N1CCc2nc3cc(-c4ccccc4)[nH]n3c(=O)c2C1 [PAT1inh-B01],effect on slc26a2 activity,did not affect
